The values below come from patent US9566240B2, “Compositions for multiphase, staggered, or sustained release of an active substance” (CLABBER GIRL CORPORATION, priority 2014, dated 2017).

Experiment [1] concerns composited rumen contents. Briefly: In vitro ruminal incubation: dry matter, starch and neutral detergent fiber disappearance. The method, then: Each of the products was tested using in vitro ruminal incubation to determine the product's influence on ruminal pH, volatile fatty acid production in relation to changes in ruminal pH, and the associative effects of ruminal pH and volatile fatty acid on dry matter disappearance, starch disappearance, and neutral detergent fiber disappearance.
Incubation solution containing water, composited rumen contents, and Van Soest buffer was placed in 1 L-incubation vessels (1 L oval deli cup with lid and Bunsen valve). Simulated feeding bags were obtained by placing 3 g of ground (Wiley Mill, 8 mm screen) total meal rations (10% alfalfa hay, 35% corn silage, 50% corn grain, and 5% vitamin/minerals) into 5 cm×10 cm bags with a pore size of 40 microns. Product 1 was added to each of eight replicate feeding bags in an amount at 0.2273 g/L. Product 2 was added to another set of eight replicate bags in an amount of 0.3704 g/L. Product 3 was added to another set of eight replicate bags in an amount of 0.5710 g/L. Control was added to another set of eight replicate bags in an amount of 0.1 g/L. A fifth set of eight replicate bags contained just the 3g of ground total meal rations to serve as a “Blank” control.
To simulate twice-a-day-feeding, four replicates from each set of replicates were added to the incubation vessels at zero hours (0 H), and four more were added at twelve hours (12 H). The incubation vessels were placed into a temperature controlled, air jacketed, anaerobic incubator (39° C., and 20% carbon dioxide) for the duration of their assigned incubation time.
Ruminal pH was measured during each incubation time. At zero hours and twelve hours, pH was also recorded before and after the simulated feeding. Volatile fatty acid production was measured by taking 50 ml aliquots of the supernatant of each incubation vessel at 0, 2, 6, 12, 14, 18, and 24 hours, acidifying the aliquot with 5 ml of 50% HCl, and freezing it for future analysis. Dry matter disappearance, starch disappearance, and neutral detergent fiber disappearance were measured by removing replicate bags at the same hours the volatile fatty acid aliquots were taken, drying them in a forced-air oven at 60° C. to a constant weight, and storing them for future analysis.
Dry matter, starch, and neutral detergent fiber concentrations were measured at 2, 4, 6, 10, 12, 16, 18, and 22 hours of incubation. The measurements for starch disappearance and neutral detergent fiber disappearance were made at 2, 6, 16, and 22 hours of incubation. The early times were selected to monitor the faster degradation of starch, and the later times to monitor the slower degradation of neutral detergent fiber. […]

Experiment [2] concerns composited rumen contents. Briefly: In vitro ruminal incubation: ruminal pH. The conditions noted are these: over a 24 hour feeding cycle. The method, then:
Each of the products was tested using in vitro ruminal incubation to determine the product's influence on ruminal pH, volatile fatty acid production in relation to changes in ruminal pH, and the associative effects of ruminal pH and volatile fatty acid on dry matter disappearance, starch disappearance, and neutral detergent fiber disappearance. Incubation solution containing water, composited rumen contents, and Van Soest buffer was placed in 1 L-incubation vessels (1 L oval deli cup with lid and Bunsen valve). Simulated feeding bags were obtained by placing 3 g of ground (Wiley Mill, 8 mm screen) total meal rations (10% alfalfa hay, 35% corn silage, 50% corn grain, and 5% vitamin/minerals) into 5 cm×10 cm bags with a pore size of 40 microns. […] Ruminal pH was measured during each incubation time. At zero hours and twelve hours, pH was also recorded before and after the simulated feeding. […] Dry matter disappearance, starch disappearance, and neutral detergent fiber disappearance were measured by removing replicate bags at the same hours the volatile fatty acid aliquots were taken, drying them in a forced-air oven at 60° C. to a constant weight, and storing them for future analysis.

The subject of experiment [3] is composited rumen contents. Briefly: In vitro ruminal incubation: volatile fatty acid production. The method, then:
Each of the products was tested using in vitro ruminal incubation to determine the product's influence on ruminal pH, volatile fatty acid production in relation to changes in ruminal pH, and the associative effects of ruminal pH and volatile fatty acid on dry matter disappearance, starch disappearance, and neutral detergent fiber disappearance. Incubation solution containing water, composited rumen contents, and Van Soest buffer was placed in 1 L-incubation vessels (1 L oval deli cup with lid and Bunsen valve). Simulated feeding bags were obtained by placing 3 g of ground (Wiley Mill, 8 mm screen) total meal rations (10% alfalfa hay, 35% corn silage, 50% corn grain, and 5% vitamin/minerals) into 5 cm×10 cm bags with a pore size of 40 microns. Product 1 was added to each of eight replicate feeding bags in an amount at 0.2273 g/L. Product 2 was added to another set of eight replicate bags in an amount of 0.3704 g/L. Product 3 was added to another set of eight replicate bags in an amount of 0.5710 g/L. Control was added to another set of eight replicate bags in an amount of 0.1 g/L. A fifth set of eight replicate bags contained just the 3g of ground total meal rations to serve as a “Blank” control. To simulate twice-a-day-feeding, four replicates from each set of replicates were added to the incubation vessels at zero hours (0 H), and four more were added at twelve hours (12 H). The incubation vessels were placed into a temperature controlled, air jacketed, anaerobic incubator (39° C., and 20% carbon dioxide) for the duration of their assigned incubation time. Ruminal pH was measured during each incubation time. At zero hours and twelve hours, pH was also recorded before and after the simulated feeding. […] Dry matter disappearance, starch disappearance, and neutral detergent fiber disappearance were measured by removing replicate bags at the same hours the volatile fatty acid aliquots were taken, drying them in a forced-air oven at 60° C. to a constant weight, and storing them for future analysis. […] The first feeding was monitored for 12 hours (2, 6, and 12). Then the second feeding was monitored at 14 and 18 hours which corresponded to the 2 and 6 hours post-feeding.

[4] abbreviates: in vitro incubation, at the two peaks of 2 and 14 hours.
Setting [5] is: in vitro incubation, overall values at 18 hours.

Take `O=C([O-])O.[Na+]` [Control, sodium bicarbonate]: the dry matter disappearance result in experiment [1] (first 11 hours of the feeding cycle) was “little dry matter disappearance”. Also, the dry matter disappearance entry in experiment [1] (in vitro incubations, FIG. 8) is “best results”. Also, in experiment [1] (in vitro incubations, FIG. 9), the starch disappearance entry is on record as “best results”. In experiment [1] (in vitro incubations, FIG. 10), the “neutral detergent fiber disappearance” value was “higher neutral detergent fiber disappearance over Products 1, 2, and 3, and Blank”. Moreover, in experiment [2], the “buffering of rumen pH” value is on record as “only a “flash” neutralization that was soon dissipated”. The “total volatile fatty acids concentration” value in experiment [3] (at 18 H, after the second feeding (12 H), FIG. 4) is recorded as “higher concentration at 18 H compared to that of Product 2”. In addition, the “ratio of even- to odd-numbered carbon chain VFAs, overall assessment” value in experiment [3] (from Table 3, high total VFA plus high propionic acid without decrease in acetic acid) is on record as “superior to the other treatments”. For the same compound, in experiment [3] (setting [4]), the “A:P Peaks (acetic acid to propionic acid ratio at peak concentrations)” value stood at 8.30; the “AB:P Peaks (sum of acetic and butyric acid to propionic acid ratio at peak concentrations)” value was 9.39. In addition, in experiment [3] (setting [5]), the “A:P (acetic acid to propionic acid ratio)” value is 11.61; the “AB:P (sum of acetic acid and butyric acid to propionic acid ratio)” value is on record as 12.50.
